Values of other authors in PMC12304798 (British Journal of Clinical Pharmacology, 2025).
Like-named read-outs stand apart in the source and are kept apart here.

Experiments:
NE activity [1] = conditions: once-daily doses, healthy volunteers
NE activity [2] = test system: NE activity
[3] = healthy Japanese and Caucasian volunteers

SMILES	reduction in NE activity (NE activity [1])	inhibitory effect on NE activity (NE activity [2]; brensocatib 10 mg)	inhibitory effect on NE activity (NE activity [2]; brensocatib 25 mg)	skin exfoliation, share of volunteers [3]
CC[C@@H](/C=C/C(=O)N1CCc2ccccc21)NC(=O)C1(N)CCOCC1 [GSK2793660]	approximately 20%	–	–	–
Cn1c(=O)oc2ccc(-c3ccc(C[C@@H](C#N)NC(=O)[C@@H]4CNCCCO4)cc3)cc21 [brensocatib]	–	30%	49%	10%
